{
  "source": "patent US10736317B2",
  "about": "“Composition having sex pheromone activity on San Jose scale, and attractant, mating disruptant, attraction method and mating disruption method for San Jose scale” (SHIN-ETSU CHEMICAL CO., LTD., priority 2017, dated 2020)",
  "system": "SJS male adult insects",
  "assay": "SJS attraction test (white adhesive trap, orchard)",
  "format": "in vivo, Quadraspidiotus perniciosus (San Jose scale)",
  "details": "conclusion from trap captures",
  "excerpt": "<Evaluation of Sex Pheromone Activity (SJS Attraction Test)> A white adhesive trap was used for evaluation of the sex pheromone activity. […] An adhesive material was applied over the bottom plate, and the attractant, which is shown as “A” in FIG. 1, was placed directly on the adhesive surface. In other words, it is configured to capture only insects that have approached the attractant, whereby keeping unintentional admission of insects as low as possible. In a period of from Jun. 30 to Oct. 2, 2015, the traps, each having one of the attractants, were placed in an orchard where SJS had inhabited. The number of male adult insects captured in each trap was measured for every 7 days. At every measurement, the installation places of the respective traps were changed by rotation of 13 places in total, in order to minimize the effects of installation environment on the number of capture.",
  "data": [
    {"smiles": "C=C(C)CCCC(C)CCOC(=O)CC", "note": "(stereo not shown) [3,7-dimethyl-7-octenyl propionate]", "values": [
      {"measurement": "sex pheromone activity on the SJS", "result": "has a sex pheromone activity on the SJS"}
    ]}
  ]
}
